Test results taken from US10196357B2, “Biaryl compositions and methods for modulating a kinase cascade” (Athenex, Inc., priority 2007, dated 2019).
“And” between values parts separate entries of the source, which are not always exact repeats. Identical values can stand only once. Like-named read-outs stand apart in the source and are kept apart here.

What was measured:
c-Src 3T3 cells = assay: BrdU cell growth inhibition, c-Src 3T3; assay type: cell-based, mouse; conditions: for GI50: c-Src 3T3 (c-Src527F/NIH3T3) cells, read-out: GI50
Method in brief: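 c-Src 3T3 cells on poly-D-lysine plates in DMEM with 2% FBS, L-glutamine, pyruvate and 10 mM HEPES. Compounds came from 20 mM DMSO stocks diluted in DMEM/10% FBS. Proliferation was read by colorimetric BrdU-incorporation ELISA, and GI50 was extrapolated from growth relative to time-zero and untreated controls.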

[1] = body weight in GL261 glioma survival study; assay type: in vivo; conditions: C57BL/6 mice
Procedure: A brain tumor mouse xenograft study was conducted comparing KX2-361 and KX2-391 (KXO1) to Temodar®. The studies were conducted in C57BL/6 mice. GL261 glioma cells (1×10^5 in 5 μl DMEM) were implanted intracranial coordinates: bregma, lateral 2.0 mm, anterior 1.2 mm, 3.0 mm depth dura. Treatment was initiated 3 days post implantation. The groups were as follows (all doses in 100 μl H2O):
FIGS. 49A-E show the weight gain in each of the C57BL/6 mice in the different treatment groups. The average weight at endpoint for each of the treatment groups is shown below in Table 30. FIG. 50 is a graph showing the average weights over a 40-day period for each of the treatment groups.

[2] = brain exposure after oral administration; assay type: in vivo, male CD-1 mice; conditions: for AUClast: Brain; for KX2-361 Brain Concentrations, Group A / KX2-361 Brain Concentrations, Group B / KX2-361 Brain Concentrations, Group C: Male CD-1 mice, single PO dose 10 mg/kg (Group 3)
Procedure: Plasma concentrations were measured in mice after oral administration. All doses were formulated in purified water. Four groups of male CD-1 mice were dosed after an overnight fast and fed 4 hours post-dose. Dosing was as follows:
Protein was precipitated with 0.25 mL acetonitrile for plasma, 0.25 mL for brain. After centrifugation, supernatant was directly injected into an LC/MS system. The limit of quantitation was 1 ng/mL using a 50 μL aliquot for plasma and a 50 μL, aliquot for brain. The standard curve was 1 to 1,000 ng/mL for both plasma and brain. HPLC conditions were as follows:
HPLC System: Shimadzu SCL-10 System
• Analytical Column: Aquasil C18 5 μm 100×2 mm column. • Column Temperature: Ambient temperature • Autosampler Temperature: Ambient temperature • Mobile Phase A) 10 mM Ammonium formate in water (pH 4). • B) Acetonitrile. • Flow Rate: 0.6 mL/min • Injection Volume: 2 μL • Gradient:
• Mass Spectrometry Conditions were as follows: • Instrument: ABI Sciex API 4000 • Mode: ESI+ • Experiment: MRM (multiple reaction monitoring) • Transitions: KX2-391: m/z 432.4→114.2 (Rt=3.11 minute) • KX2-361: m/z 406.1→253.2 (Rt=3.33 minute)

HT29 cell line = assay: BrdU cell growth inhibition, HT29; assay type: cell-based, human; conditions: for GI50: read-out: GI50
Method in brief: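 HT29 colon carcinoma cells treated with compounds diluted from 20 mM DMSO stocks into DMEM/10% FBS. Proliferation read as colorimetric BrdU incorporation ELISA; GI calculated relative to untreated cells at time 0 and control cells at day n, with GI50 extrapolated. Net cell loss below time-0 level scored as cytotoxicity.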

L3.6pl cells = assay: growth inhibition (BrdU), L3.6pl; assay type: cell-based, human; conditions: L3.6pl (Pancreas) cells, single agent
Description: L3.6pl cells are previously described in Trevino et al. Am J Pathol.

[3] = tested on: PDGF receptor tyrosine kinase Y572/574; assay: PDGF receptor autophosphorylation in cells; assay type: cell-based; conditions: c-Src527F/NIH-3T3 cells
Procedure: (§1) HT29 (colon cancer) and c-Src527F/NIH-3T3 (Src transformed) cell lines were treated with KX2-391 or with AstraZeneca's ATP competitive Src inhibitor AZ28. AZ28 serves as a positive comparator to show what a validated Src inhibitor should do in these assays. After treatment with compound, cells were lysed, subjected to PAGE and probed with a battery of antibodies. […] In addition, off-target protein phosphorylation was also investigated. Further, induction of apoptosis was evaluated via Caspase 3 cleavage. Multiple doses of each compound were tested because the trends in response to increasing drug concentration are the most reliable indicator of activity.
(§2) The same range of multiples of the GI50 for AZ28 in these two cell lines was run as a comparison.
This is thought not to be a direct Src substrate in cells.

Shc Y239/240 = assay: intracellular phosphorylation, Shc Y239/240; assay type: cell-based; conditions: whole cells
Procedure: as §1, §2
KX2-391 and AZ28 inhibited Src transphosphorylation.

O=C(Cc1ccc(-c2ccc(N3CCOCC3)cc2)cn1)NCc1cccc(F)c1 [KX2-361]
activity at 0.1 µM (c-Src 3T3 cells; Mus musculus, NIH3T3, 100 nM, read-out: c-Src 3T3 Growth, % of Control Mean, n = 3): < 0% | activity at 1 µM (c-Src 3T3 cells; Mus musculus, NIH3T3, 1.0 uM, read-out: c-Src 3T3 Growth, % of Control Mean, n = 3): < 0% | activity at 10 µM (c-Src 3T3 cells; Mus musculus, NIH3T3, 10 uM, read-out: c-Src 3T3 Growth, % of Control Mean, n = 3): < 0% | GI50 (c-Src 3T3 cells; Mus musculus): 11 nM | Average weight at endpoint ([1]; 15 mg/kg): 16.9 g | Average weight at endpoint ([1]; 30 mg/kg): 15.0 g | AUClast ([2]; single oral dose 10 mg/kg): 656 ng·h/g | AUClast ([2]; single oral dose 50 mg/kg): 3338 ng·h/g | KX2-361 Brain Concentrations, Group A ([2]; 0 hr): BLQ (BLQ: Below Limit of Quantitation (1 ng/mL)) | KX2-361 Brain Concentrations, Group B ([2]; 0 hr): BLQ (BLQ: Below Limit of Quantitation (1 ng/mL)) | KX2-361 Brain Concentrations, Group C ([2]; 0 hr): BLQ (BLQ: Below Limit of Quantitation (1 ng/mL)) | KX2-361 Brain Concentrations, Group A ([2]; 0.5 hr): 43.98 ng/g | KX2-361 Brain Concentrations, Group B ([2]; 0.5 hr): 138.55 ng/g | KX2-361 Brain Concentrations, Group C ([2]; 0.5 hr): 116.84 ng/g | KX2-361 Brain Concentrations, Group B ([2]; 1 hr): 334.71 ng/g | KX2-361 Brain Concentrations, Group C ([2]; 1 hr): 273.32 ng/g | KX2-361 Brain Concentrations, Group A ([2]; 2 hr): 109.78 ng/g | KX2-361 Brain Concentrations, Group B ([2]; 2 hr): 78.76 ng/g | KX2-361 Brain Concentrations, Group C ([2]; 2 hr): 336.07 ng/g | KX2-361 Brain Concentrations, Group A ([2]; 5 hr): BLQ (BLQ: Below Limit of Quantitation (1 ng/mL)) | KX2-361 Brain Concentrations, Group C ([2]; 5 hr): 47.85 ng/g | AUClast Brain/AUClast Plasma Ratio ([2]; single oral dose 10 mg/kg): 0.76 | GI50 (HT29 cell line; Homo sapiens, HT-29, HT29 (Colon) cells): 10 nM | activity at 0.05 µM (HT29 cell line; Homo sapiens, HT-29, 50 nM, read-out: HT-29 Growth, % of Control Mean, n = 3): < 0% | activity at 0.5 µM (HT29 cell line; Homo sapiens, HT-29, 500 nM, read-out: HT-29 Growth, % of Control Mean, n = 3): < 0% | activity at 5 µM (HT29 cell line; Homo sapiens, HT-29, 5 uM, read-out: HT-29 Growth, % of Control Mean, n = 3): < 0%

O=C(Cc1ccc(-c2ccc(OCCN3CCOCC3)cc2)cn1)NCc1ccccc1 [KXO1]
GI50 (c-Src 3T3 cells): 23 nM | GI50 (L3.6pl cells): 25 nM and 32 nM | PDGF receptor Y572/574 autophosphorylation [3]: not inhibited | GI50 (HT29 cell line; HT29 (Colon) cells): 25 nM | phosphorylation of Shc Y239/240 (Src transphosphorylation) (Shc Y239/240): potent inhibitor
